Source: US20180244653A1, “SELECTIVE ALPHA-7 NICOTINIC RECEPTOR AGONISTS AND METHODS FOR MAKING AND USING THEM” (THE REGENTS OF THE UNIVERSITY OF CALIFORNIA, priority 2015, published 2018)

Key:
[1] = tested on: scopolamine-induced amnesic mice; test: Water maze test; format: in vivo; details: i.p.; IND8 25 and 50 μmol/kg, QND8 25 μmol/kg
Method: The water maze test, a model for spatial learning and reference memory, related to function in the hippocampus, was also used as a study model in which mice locate a hidden platform after training session. Mice were trained to locate a hidden platform until a steady state measured by a shortened escape latency time was reached.
The average swimming time in a target quadrant where the platform had previously been placed was measured in the test day, day 8 (FIG. 25).
FIG. 25 illustrates the average swimming time in the target quadrant of water maze test. Data are presented in means±SE. IND8, QND8, PNU-282987, vehicle (15% Tween80, SH) and tacrine (TC) were injected 1 h and scopolamine (SC) 30 min before testing, respectively.
A black circular tank (diameter 70 cm; height 28 cm) was divided into 4 quadrants with a removable escape platform (6×7.5×14 cm) centered in a target quadrant. The tank was filled with water to 15 cm height and the platform was located 1 cm below the water surface.
Mice were trained from 5-7 days to get the steady state of escape latency. During day 1 to 5, each mouse was trained to swim from each quadrant with 1 min maximum time and allowed to stay on the platform for 10 sec. The mouse is placed on the platform for 10 s if it cannot find the hidden platform within 1 min. The escape latency time from each quadrant was measured. […] The probe test began when the escape latency time reached the steady state. The platform was removed and time spent in the target quadrant was measured. On the next day, all conditions were the same as probe test, but the platform was brought back to remind the mice of the target quadrant location. All mice were injected with test compounds 1 h and scopolamine 30 min before testing. The swimming time in the target quadrant was measured.

[2] = biological target: hERG K^+ channel (Homo sapiens, UniProt Q12809); details: at 20 μM; cited from earlier work
hERG K^+ channel, sequence (Q12809 whole entry): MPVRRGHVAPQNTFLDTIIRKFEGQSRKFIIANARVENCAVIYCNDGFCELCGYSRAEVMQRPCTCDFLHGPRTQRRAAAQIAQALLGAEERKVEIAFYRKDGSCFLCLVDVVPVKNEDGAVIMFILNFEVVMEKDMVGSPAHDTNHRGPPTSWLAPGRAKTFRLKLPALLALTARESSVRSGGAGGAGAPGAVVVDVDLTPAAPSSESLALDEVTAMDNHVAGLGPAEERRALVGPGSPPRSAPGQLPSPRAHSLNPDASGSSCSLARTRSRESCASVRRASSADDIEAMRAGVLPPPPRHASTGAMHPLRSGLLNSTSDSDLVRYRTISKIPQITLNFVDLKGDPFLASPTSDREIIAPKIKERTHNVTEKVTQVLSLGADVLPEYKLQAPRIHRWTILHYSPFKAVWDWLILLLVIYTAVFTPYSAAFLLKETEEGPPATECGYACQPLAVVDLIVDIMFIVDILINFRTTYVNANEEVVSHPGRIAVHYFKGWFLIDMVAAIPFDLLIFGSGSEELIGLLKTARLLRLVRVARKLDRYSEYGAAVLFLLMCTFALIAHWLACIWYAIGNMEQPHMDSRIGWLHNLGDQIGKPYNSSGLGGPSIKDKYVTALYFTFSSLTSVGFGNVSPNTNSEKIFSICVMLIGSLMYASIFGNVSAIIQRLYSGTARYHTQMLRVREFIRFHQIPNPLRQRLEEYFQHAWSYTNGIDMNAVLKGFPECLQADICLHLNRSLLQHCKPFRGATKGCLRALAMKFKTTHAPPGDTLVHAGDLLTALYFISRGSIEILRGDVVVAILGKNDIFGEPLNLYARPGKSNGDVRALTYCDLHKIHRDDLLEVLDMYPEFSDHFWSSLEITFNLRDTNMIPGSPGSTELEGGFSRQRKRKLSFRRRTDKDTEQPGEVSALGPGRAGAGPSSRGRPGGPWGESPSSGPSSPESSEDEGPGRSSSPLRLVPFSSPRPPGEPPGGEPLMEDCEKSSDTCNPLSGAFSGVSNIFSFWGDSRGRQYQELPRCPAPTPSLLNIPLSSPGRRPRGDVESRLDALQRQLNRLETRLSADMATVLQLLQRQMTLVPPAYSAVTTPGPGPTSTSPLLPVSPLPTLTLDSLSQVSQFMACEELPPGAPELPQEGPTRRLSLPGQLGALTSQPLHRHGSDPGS

c1cc2cc(-c3cn(C4CN5CCC4CC5)nn3)ccc2[nH]1 (stereo not drawn) [IND8, 5-((Quinuclid-3-yl)-1H-1,2,3-triazol-4-yl)-1H-indole]
Time in target quadrant, water maze vs scopolamine-treated group [1]: significantly spent more time than amnesia group

O=C(N[C@H]1CN2CCC1CC2)c1ccc(Cl)cc1 [PNU-282987, reference compound]
inhibition of hERG [2]: 57%

Oc1ccc(-c2cn(C3CN4CCC3CC4)nn2)cc1 (stereo not drawn) [QND8, 3-(4-hydroxyphenyl-1,2,3-triazol-1-yl) quinuclidine]
Time in target quadrant, water maze vs scopolamine-treated group [1]: significantly spent more time than amnesia group
